{"source": "patent US20250213627A1", "about": "“RECOMBINANT MICROORGANISM-BASED METHODS AND COMPOSITIONS FOR TREATMENT OF DISEASE” (Baylor College of Medicine, priority 2021, published 2025)", "key": {"[1]": {"assay": "Bioavailability and pharmacokinetics of ShK-235 in circulation of healthy rats", "assay_type": "in vivo, rat", "description": "To test whether the intestinal environment interferes with LrS235 secretion of ShK-235, or prevents it from crossing into the circulation, healthy rats were gavaged with a single bolus of 1×10^9 CFU of either LrGusA or LrS235, both after SppIP induction, and 6 hours later, sera was collected and the ability of serum samples to block Kv1.3 channels tested by whole-cell patch-clamp.\nSera was taken at various timepoints ranging from 3 hours to 72 hours after the single bolus of LrS235. Peak levels of ShK-235 were detected 6 hours after LrS235 delivery, with the range of functional activity from 3 hours to 48 hours post-gavage (FIG. 8C).\nBioavailability and pharmacokinetics of ShK-235 after oral delivery. Male rats received a single oral gavage of either 1×10^9 cfus LrS235 or an enteric-coated capsule filled with ShK-235. Blood was collected via the saphenous vein at the different time points indicated in the figure, the last blood draw being a terminal cardiac puncture (48). Serum samples were assayed for Kv1.3 block by patch-clamp electrophysiology."}, "mKv1.3 channels": {"biological_target": "T1, mKv1.3 channels (Mus musculus, UniProt P16390)", "T1 construct": "expressed in transfected cells", "T1 sequence (P16390 whole entry)": "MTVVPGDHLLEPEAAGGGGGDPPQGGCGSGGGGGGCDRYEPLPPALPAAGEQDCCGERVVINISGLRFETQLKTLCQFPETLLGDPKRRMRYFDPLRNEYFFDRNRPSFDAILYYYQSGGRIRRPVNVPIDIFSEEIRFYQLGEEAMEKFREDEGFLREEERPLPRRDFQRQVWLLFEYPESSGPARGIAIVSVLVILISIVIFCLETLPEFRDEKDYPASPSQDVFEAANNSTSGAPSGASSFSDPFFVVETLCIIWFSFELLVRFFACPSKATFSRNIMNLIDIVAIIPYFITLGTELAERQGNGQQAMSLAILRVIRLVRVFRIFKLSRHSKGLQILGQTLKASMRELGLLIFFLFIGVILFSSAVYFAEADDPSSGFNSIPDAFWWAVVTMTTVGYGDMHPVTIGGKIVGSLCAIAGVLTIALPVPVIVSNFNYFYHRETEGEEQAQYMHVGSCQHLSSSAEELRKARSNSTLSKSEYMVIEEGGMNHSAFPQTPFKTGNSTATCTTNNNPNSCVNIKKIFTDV", "assay": "Whole-cell patch-clamp block of Kv1.3 currents in L929 fibroblasts stably expressing mKv1.3", "assay_type": "cell-based", "description": "In the absence of antibodies directed to ShK-235, the inventors used functional assays to identify and quantify ShK-235 expression and secretion into culture supernatants of LrS235. In more detail, the presence of active peptide was assayed by using whole-cell patch-clamp to test the ability of LrS235 supernatants to block Kv1.3 channels in mouse L929 fibroblasts stably expressing mKv1.3 channels. LrS235 and LrGusA were grown to mid-exponential phase and induced for expression of ShK-235 or GusA, and supernatants were processed as described in the materials and methods. […] Culture supernatant from LrS235 and LrGusA was tested for Kv1.3 channel block and the dose-response curve used to calculate the concentration of ShK-235 in supernatants.\nPatch-clamp electrophysiology. To determine the concentration of ShK-235 in the LrS235 supernatants and rat sera, a dose-response of ShK-235 block of Kv1.3 was determined by adding known concentrations of the peptide to naïve rat serum and then testing by whole-cell patch-clamp of mouse L929 fibroblasts stably expressing mKv1.3 channels (45) using a PORT-A-PATCH® automated patch-clamp system (Nanion, Livingston, NJ), as described (16, 46). Culture supernatants and serum samples were then assessed with the same technique, and the dose-response curve was used to determine peptide concentration."}, "[2]": {"test_system": "Kv1.3 versus Kv1.1 and other ion channels", "assay": "Selectivity for Kv1.3 over other channels by whole-cell patch-clamp", "assay_type": "cell-based", "conditions": "FIG. 5E", "excerpt": "FIGS. 5A-5E. […] FIG. 5A. Whole-cell Kv1.3 currents before (control) and after addition of 100 pM ShK-235. FIG. 5B. Dose-response effects of ShK-235 on Kv1.3 currents (n=4 cells per concentration). FIG. 5C. Dose-response of mKv1.3 block by synthetic ShK-235. N=3 cells per concentration. […] FIG. 5D. Representative traces of the block of mKv1.3 currents by 100 pM synthetic ShK-235. FIG. 5E. Selectivity of ShK-235 against Kv1.x channels determined by whole-cell patch-clamp."}, "[3]": {"test_system": "CIA and PIA rat models of RA", "assay": "Early and late treatment of CIA and PIA by LrS235", "conditions": "in vivo", "excerpt": "Early and late treatment of CIA and PIA by LrS235. The objective of these experiments is to define the benefits of LrS235 as an oral delivery system for ShK-235 in reducing joint damage and local and systemic inflammation in rat models of RA and compare its efficacy to that of injected ShK-235 and ShK-235 delivered via an enteric-coated capsule. CIA is induced in Lewis rats by two injections at a week interval of an emulsion of porcine collagen II in incomplete Freund's adjuvant at the base of the tail^36,40,65,66. PIA is induced in DA rats by the single injection of pristane at the base of the tail. Clinical signs of CIA are observed in some aspects 3-6 days after the booster injection and clinical signs of PIA are observed in some aspects 2-3 weeks after the pristane injection. Clinical signs are scored daily based on the number of joints affected and the severity of the swelling, as in FIG. 7A. […]\nRats start receiving daily treatments either at onset of clinical signs (early treatment), or 10 days later, at peak of disease severity (late treatment). […] Rats are monitored daily for body weight and scored for clinical signs of arthritis using a standard scoring method^36,40,65,66 described in herein (FIG. 7A). […] At the end of the trials, animals are euthanized for collection of blood, hind limbs, inguinal lymph nodes, and small and large intestines, and the following is measured: […]"}, "[4]": {"test_system": "DTH reaction mediated by antigen-specific TEM lymphocytes", "assay": "Active delayed-type hypersensitivity (DTH) reaction against ovalbumin in the ear", "assay_type": "in vivo, rat", "description": "Then, it was assessed if LrS235 gavage could reduce a delayed-type hypersensitivity (DTH) reaction in the ear of rats, a local autoinflammation mediated by antigen-specific TEM lymphocytes. […] In contrast, treatment with LrGusA, capsules filled with ShK-235 or gelatin, and supernatants from the culture of the LrS235 had no effects on inflammation.\nInduction and monitoring of an active delayed-type hypersensitivity reaction. Male and female rats were immunized in the flanks with 200 μl of a 1:1 emulsion of ovalbumin (Sigma, St. Louis, MO) in complete Freund's adjuvant (Difco/Becton Dickinson, Franklin Lakes, NJ)(25). After 7 days, under isoflurane anesthesia, the rats were challenged with ovalbumin dissolved in saline in the pinna of one ear; the collateral ear was injected with saline (49). Rats received either a single subcutaneous injection of 0.1 mg/kg ShK-235 or P6N vehicle, a single oral gavage of 1×10^9 cfus LrS235 or LrGusA, oral gavage of 1 ml supernatant of LrS235, or a capsule filled with ShK-235 or gelatin immediately before the ear challenge. The DTH reaction was measured 24 hours post-challenge as the thickness of the ear using a spring-loaded micrometer (Mitutoyo, Japan) and ear inflammation was determined by comparing the ear thickness of the ovalbumin-challenged with the saline-challenged ear from each (49). The animals were euthanized after the ear measurements."}}, "data": [{"smiles": "CC[C@H](C)[C@@H]1NC(=O)[C@H](CO)NC(=O)[C@H](Cc2c[nH]cn2)NC(=O)[C@H](CCCCN)NC(=O)[C@@H]2CSSC[C@@H]3NC(=O)[C@H]([C@@H](C)O)NC(=O)[C@H](CCCCN)NC(=O)[C@H](CCCNC(=N)N)NC(=O)[C@H](CSSC[C@H](NC(=O)[C@H](CCCNC(=N)N)NC(=O)[C@H](CO)NC(=O)[C@H](CCCCN)NC(=O)[C@@H]4CCCN4C(=O)[C@H]([C@@H](C)CC)NC(=O)[C@H]([C@@H](C)O)NC(=O)[C@H](CC(=O)O)NC(=O)[C@H]([C@@H](C)CC)NC(=O)[C@@H](NC(=O)[C@H](CO)NC(=O)[C@@H](N)CCCNC(=N)N)CSSC[C@@H](C(=O)N[C@@H](C)C(=O)O)NC(=O)[C@H]([C@@H](C)O)NC(=O)CNC3=O)C(=O)N[C@@H]([C@@H](C)O)C(=O)N[C@@H](C)C(=O)N[C@@H](Cc3ccccc3)C(=O)N[C@@H](CCCCN)C(=O)N2)NC(=O)[C@H](Cc2ccccc2)NC(=O)[C@H](CO)NC(=O)[C@H](CC(C)C)NC(=O)[C@H](CCCNC(=N)N)NC(=O)[C@H](Cc2ccc(O)cc2)NC(=O)[C@H](CCCCN)NC1=O", "note": "[ShK-235]", "values": [{"measurement": "Serum levels of ShK-235 after enteric-coated capsule", "setting": "[1]; oral ACRYL-EZE coated capsule filled with 0.3 mg ShK-235", "value": "no measurable serum levels"}, {"measurement": "level at time molar", "setting": "[1]; rat, in vivo, injection of 0.1 mg/kg, read-out: Level detected in the circulation after injection", "value": "0.6 to 0.8", "unit": "nM"}, {"measurement": "IC50", "setting": "mKv1.3 channels", "value": "0.0693 ± 0.024", "unit": "nM"}, {"measurement": "Selectivity for Kv1.3 over other channels", "setting": "[2]", "value": "≥ 2,200 fold"}, {"measurement": "Effect on incidence and severity of CIA and PIA", "setting": "[3]", "value": "reduce the incidence"}, {"measurement": "Effect on ear inflammation", "setting": "[4]; oral enteric-coated capsule filled with ShK-235", "value": "no effects"}, {"measurement": "Reduction of ear inflammation compared with vehicle control", "setting": "[4]; single subcutaneous injection 0.1 mg/kg", "value": 58, "unit": "%"}]}]}
